We go through 14 molecules from patent US20120238549A1, “Nuclear Hormone Receptor Modulators” (ABBOTT LABORATORIES, priority 2011, published 2012).

SMILES strings stand for the structures.

The target of this experiment is T1, Glucocorticoid Receptor (GR) (Homo sapiens, UniProt P04150).
T1 construct: purchased Invitrogen P2893
T1 sequence (P04150 1-777): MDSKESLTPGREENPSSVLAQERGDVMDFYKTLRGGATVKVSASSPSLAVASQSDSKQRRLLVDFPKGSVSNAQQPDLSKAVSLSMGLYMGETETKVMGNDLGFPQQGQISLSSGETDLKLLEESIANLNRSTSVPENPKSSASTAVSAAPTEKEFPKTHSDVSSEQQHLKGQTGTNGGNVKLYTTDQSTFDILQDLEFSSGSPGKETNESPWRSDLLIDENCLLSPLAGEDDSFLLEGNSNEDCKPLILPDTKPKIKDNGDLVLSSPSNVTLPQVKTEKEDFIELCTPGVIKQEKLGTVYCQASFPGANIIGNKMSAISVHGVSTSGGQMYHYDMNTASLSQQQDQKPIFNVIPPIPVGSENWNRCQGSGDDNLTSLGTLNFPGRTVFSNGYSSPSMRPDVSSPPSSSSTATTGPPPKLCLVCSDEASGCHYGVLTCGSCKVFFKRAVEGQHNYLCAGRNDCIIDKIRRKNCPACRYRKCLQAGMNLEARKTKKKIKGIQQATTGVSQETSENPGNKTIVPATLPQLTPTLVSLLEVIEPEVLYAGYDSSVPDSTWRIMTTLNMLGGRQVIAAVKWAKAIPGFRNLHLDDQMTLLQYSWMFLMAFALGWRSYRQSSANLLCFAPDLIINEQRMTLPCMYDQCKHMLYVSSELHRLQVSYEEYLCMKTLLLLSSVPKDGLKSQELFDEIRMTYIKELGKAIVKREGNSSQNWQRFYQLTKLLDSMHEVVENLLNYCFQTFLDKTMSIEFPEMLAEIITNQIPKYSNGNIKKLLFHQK
The experiment is described as follows: GR Florescence Polarization Assay (PolarScreen Glucocorticoid Receptor Competitor Assay, Red). The following applies: Fluorescense polarization binding ranges; competition with fluorescent glucocorticoid, incubated overnight at 4° C. The procedure, abridged: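 Competitive fluorescence polarization using fluorescent glucocorticoid tracer and human GR in kit buffer. Compounds serially diluted 1:4 in DMSO, incubated with tracer and GR overnight at 4 °C before polarization read.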
A word on the IC50: it is the concentration at which inhibition is half-maximal. Higher therefore signals weaker potency. For `Cc1ncccc1NC(=O)c1ccc2c(c1)CCC[C@H]1C[C@H](O)CC[C@@]21Cc1ccccc1` (racemic) [Example 17, (7aS,9R,11aS)-11a-Benzyl-9-hydroxy-6,7,7a,8,9,10,11,11a-octahydro-5H-dibenzo[a,c]cycloheptene-3-carboxylic acid (2-methyl-pyridin-3-yl)-amide; compound with (7aR,9S,11aR)-11a-benzyl-9-hydroxy-6,7,7a,8,9,10,11,11a-octahydro-5H-dibenzo[a,c]cycloheptene-3-carboxylic acid (2-methyl-pyridin-3-yl)-amide], the IC50 was < 100 nM.

In turn, `CC[C@]1(O)CC[C@]2(Cc3ccccc3)c3ccc(C(=O)Nc4cccnc4C)cc3C(=O)CC[C@@H]2C1` (single isomer, unassigned) [Example 25] registered an IC50 of 1000 to 10000 nM.

As for `CCC[C@@]1(O)CC[C@@]2(CC)c3ccc(C(=O)Nc4cccnc4C)cc3C(=O)CC[C@H]2C1` (single isomer, unassigned) [Example 61], the IC50 was in the range of 100 to 1000 nM.

For the molecule `CCC[C@@]1(O)CC[C@@]2(Cc3ccccc3)c3ccc(C(=O)Nc4cccnc4C)cc3CCC[C@H]2C1` (racemic) [Example 31, (7aS,9R,11aS)-11a-Benzyl-9-hydroxy-9-propyl-6,7,7a,8,9,10,11,11a-octahydro-5H-dibenzo[a,c]cycloheptene-3-carboxylic acid (2-methyl-pyridin-3-yl)-amide; compound with (7aR,9S,11aR)-11a-benzyl-9-hydroxy-9-propyl-6,7,7a,8,9,10,11,11a-octahydro-5H-dibenzo[a,c]cycloheptene-3-carboxylic acid (2-methyl-pyridin-3-yl)-amide], the IC50 is < 100 nM.

Take `Cc1ncccc1NC(=O)c1ccc2c(c1)CCC[C@H]1C[C@@](O)(CO)CC[C@@]21Cc1ccccc1` (racemic) [Example 104]: the IC50 was 100 to 1000 nM.

Take `Cc1ncccc1NC(=O)c1ccc2c(c1)CCC[C@@H]1C[C@](C)(O)CC[C@@]21Cc1ccccc1` (single isomer, unassigned) [Example 90]: the IC50 was < 100 nM.

Take `CC[C@@]1(O)CC[C@@]2(CC)c3ccc(C(=O)Nc4cccnc4C)cc3COC[C@H]2C1` [Example 140]: the IC50 was in the range of 100 to 1000 nM.

`CC[C@]12CC[C@](C)(O)C[C@H]1CCCc1cc(C(=O)Nc3cccnc3C)ccc12` (single isomer, unassigned) [Example 59] showed an IC50 of 1000 to 10000 nM.

Regarding `Cc1ncccc1NC(=O)c1ccc2c(c1)COC[C@@H]1C[C@@](O)(C(F)(F)F)CC[C@@]21Cc1ccccc1` [Example 116, (7aR,9R,11aS)-11a-Benzyl-9-hydroxy-N-(2-methylpyridin-3-yl)-9-(trifluoromethyl)-5,7,7a,8,9,10,11,11a-octahydrodibenzo[c,e]oxepine-3-carboxamide], the IC50 was 100 to 1000 nM.

Turning to `CC[C@@]1(O)CC[C@@]2(Cc3ccccc3)c3ccc(C(=O)Nc4ccncc4C)cc3CCC[C@H]2C1` [Example 70], the IC50 was < 100 nM.

For `Cc1ncccc1NC(=O)c1ccc2c(c1)CCC[C@H]1C[C@@](O)(COc3ccccc3)CC[C@@]21Cc1ccccc1` (racemic) [Example 103], the IC50 is < 100 nM.

Consider `CCCOC[C@@]1(O)CC[C@@]2(Cc3ccccc3)c3ccc(C(=O)Nc4cccnc4C)cc3CCC[C@H]2C1` [Example 98], for which the IC50 was < 100 nM.

Consider `CC#C[C@]1(O)CC[C@@]2(Cc3ccccc3)c3ccc(O)cc3CCC[C@H]2C1` (racemic) [Example 28, (3S,4aS,11bS)-11b-Benzyl-3-prop-1-ynyl-2,3,4,4a,5,6,7,11b-octahydro-1H-dibenzo[a,c]cycloheptene-3,9-diol; compound with (3R,4aR,11bR)-11b-benzyl-3-prop-1-ynyl-2,3,4,4a,5,6,7,11b-octahydro-1H-dibenzo[a,c]cycloheptene-3,9-diol], for which the IC50 is 100 to 1000 nM.

`CCCOC[C@]1(O)CC[C@]2(Cc3ccccc3)c3ccc(C(=O)Nc4cccnc4C)cc3CCC[C@@H]2C1` [Example 99] had an IC50 of 1000 to 10000 nM.
